These results are taken from patent US5593835A, “Methods and kits for RNA binding compounds” (President and Fellows of Harvard College, priority 1995, dated 1997).

Read-outs that look alike come from different tables or passages of the source.

In test [1] the target is clone W13 RNA (SEQ ID NO:1), tobramycin-selected RNA aptamer. Kind of test: Equilibrium dialysis binding to clone W13 RNA. The following applies: competition studies with 3H-acetyl tobramycin; read-out: dissociation constant. Here is the method:
One of these RNAs, clone W13 (SEQ ID NO:1) was chosen for quantitative studies to determine the specificity of its binding to RNA. […] The dissociation constant for tobramycin was determined to be 3 μM by competition studies with ^3 H-acetyl tobramycin. These values are close to those measured for tobramycin and ^3 H-acetyl tobramycin binding to ribosomal targets (LeGoffic et al. (1979) Eur. J. Biochem. 102: 73-81).
Equilibrium dialysis measurements were performed according to the procedure of Lorsch et al. (Biochem. (1994) 33: 973-982).
(Equilibrium dialysis compares concentrations on both sides of a semipermeable membrane.)

Test [2] has as its target W13 RNA having SEQ ID NO:1. Put plainly: Fluorescence (PYT quenching) titration and competition binding to W13 RNA. As to conditions: fluorescence; competition with PYT (150 nM PYT, 300 nM W13), 20° C., pH 7.4; N.B. = no measurable binding. Here is the method:
To study the binding behavior of clone W13, a fluorescently labelled pyrene-conjugated tobramycin derivative "PYT" was prepared.
For competitive binding studies, different concentrations of antibiotic (glucosamine (0-10 mM), erythromycin (0-6 mM), gentamicin C (0-700 μM), or neomycin B (0-650 μM)), were mixed with constant concentrations of RNA (300 nM W13) and PYT (150 nM), in Binding buffer (140 mM NaCl, 5 mM KCl, 1 mM MgCl2, 1 mM CaCl2, 20 mM HEPES, pH 7.4), 750 μl total volume, for 1-5 min. at 20° C. in a semimicro-cell cuvette. The fluorescence was measured on a Perkin-Elmer Model 512 double beam fluorescence spectrophotometer. The excitation wavelength used was 341 nm. The intensities of fluorescence emission at 380 nm were used to calculate dissociation constants. Generally 8 to 10 points were used for calculation.
(§1) Steady state fluorescence measurements were performed on a double beam fluorescence spectrometer (Perkin-Elmer Model 512, Norwalk, Conn.). The excitation wavelength was 341 nm. All measurements were done at 20° C. in 140 mM NaCl, 5 mM KCl, 1 mM CaCl2, 1 mM MgCl2, and 20 mM HEPES, pH 7.4. The KD of the PYT and the RNA aptamer was calculated by the curve fitting of the fluorescence intensity as a function of RNA concentration, using the following equation
(assuming a 1:1 complex): I=Io +0.5Δε ([PYT]o
-(([PYT]o +[RNA]o KI)^2 -4[PYT]o [RNA]o)^0.5)
Competition binding measurements of antibiotics with RNA and PYT were performed at constant concentrations of PYT and RNA by monitoring fluorescence intensity changes as a function of changing concentrations of the antibiotics (a standard fluorescence curve). The KD s for the antibiotics were calculated by the curve fitting of the fluorescence intensity of PYT as a function of antibiotic concentration, using the following equation:
I=Io +Δε[PYT.circle-solid.RNA]
[PYT.circle-solid.RNA]=0.5(([PYT]o +[RNA]o)([RNA]o
+KD)+KI ([T]o +[RNA]o +KD)-((([PYT]o
+[RNA]o)([RNA]o +KD)+KI ([T]o +[RNA]o
+KD))^2 -4([RNA]o +KD) [PYT]o [RNA]o
([RNA]o +KD))^0.5)([RNA]o +KD) (equation 2)
KD and KI are the dissociation constants for the antibiotic and PYT respectively.
[T]o is the total concentration of antibiotic added. Measurements were taken at least twice for each measured KD.

Test [3] has as its target J6a1 RNA (SEQ ID NO: 5), synthetically derived from the predicted structures. Kind of test: Fluorescence binding measurements, J6a1 RNA. As for the experimental part: The binding of tobramycin to two cloned RNAs X1 (SEQ ID NO:2) and J6 (SEQ ID NO:5), representative of both classes of consensus sequences, was measured using the fluorescence techniques described in the exemplification.
*synthetically derived from the predicted structures
as §1
(§2) Competition binding measurements of antibiotics with RNA and PYT were performed at constant concentrations of PYT and RNA by monitoring fluorescence intensity changes as a function of changing concentrations of the antibiotics (a standard fluorescence curve). The KD s for the antibiotics were calculated by the curve fitting of the fluorescence intensity of PYT as a function of antibiotic concentration, using the following equation: […]

Test [4] has as its target RRE region of HIV RNA. Put plainly: Fluorescence binding and competitive binding to RRE RNA. The following applies: competition, 100 nM RNA, 15 nM fluorescent tobramycin, 20° C., pH 7.4; read-out: Dissociation Constant (KD) RRE RNA. Here is the method:
(§3) In order to quantitatively determine whether fluorescently labelled tobramycin and other antibiotics bind directly to the RRE region and/or to other regions of the HIV RNA, and with what affinity, the RRE and TAR regions of HIV RNA were prepared and used in the method of the invention as target RNAs.
For binding studies, different concentrations of RRE RNA (from 0 to 300 nm) were mixed with a constant concentration (15 nM) PYT in Binding buffer (140 mM NaCl, 1 mM MgCl2, 20 mM HEPES, pH 7.4), 2 ml total volume, for 1-5 min. at 20° C. in a semimicro-cell cuvette. The fluorescence was measured on a Perkin-Elmer Model 512 double beam fluorescence spectrophotometer. The excitation wavelength used was 330 nm. The intensities of fluorescence emission at 390 nm were used to calculate dissociation constants. Generally 8 to 12 points were used for calculation.
(§4) In other competitive binding studies, TAR or RRE RNA was added at a constant concentration of 100 nM±5% and PYT at 15 nM. Different concentrations of competitive antibiotic (tobramycin (o-60 μM), gentamicin C (0-100 μM), neomycin B (0-4 μM), or lividomycin A (0-100 μM) or Rev protein (0-6 μM) were mixed with constant concentrations of RNA (100 nM TAR or RRE) and C1PYT (15 nM), in Binding buffer (140 mM NaCl, 5 mM KCl, 1 mM MgCl2, 20 mM HEPES, pH 7.4), 2 ml total volume, for 1-5 min. at 20° C. in a semimicrocell cuvette. The fluorescence was measured on a Perkin-Elmer Model 512 double beam fluorescence spectrophotometer. The excitation wavelength used was 330 nm. The intensities of fluorescence emission at 390 nm were used to calculate dissociation constants. Generally 8 to 12 points were used for calculation.
Wild type and mutant RRE RNAs were transcribed in vitro by T7 RNA polymerase using synthetic oligonucleotide templates, as described by Milligan et al. (Meth. Enzymol. (1989) 180: 51-62).
as §2

Test [5] has as its target TAR region of HIV RNA. Put plainly: Fluorescence binding and competitive binding to TAR RNA. The following applies: competition, 100 nM RNA, 15 nM fluorescent tobramycin, 20° C., pH 7.4; read-out: Dissociation Constant (KD) TAR RNA. Here is the method:
as §3, §4
Competition binding measurements of antibiotics with RNA and PYT were performed at constant concentrations of PYT and RNA by monitoring fluorescence intensity changes as a function of changing concentrations of the antibiotics (a standard fluorescence curve). […]

For the compound `NC[C@H]1O[C@H](O[C@H]2[C@H](O)[C@@H](O[C@H]3O[C@H](CO)[C@@H](O)[C@H](N)[C@H]3O)[C@H](N)C[C@@H]2N)[C@H](N)C[C@@H]1O` [tobramycin], the Kd in test [1] was 3000 nM; in test [2], 4300 ± 700 nM; in test [3] (K1 - high affinity, read-out: Dissociation Constants K1(TOB)) it was 9 ± 3 nM; in test [3] (K2 - low affinity, read-out: Dissociation Constants K2(TOB)), 2700 ± 300 nM; in test [4], 2320 ± 280 nM; in test [5], 19100 ± 1100 nM.
